Measured values from US10513519B2, “Solid forms of (1S,4S)-4-(2-(((3S,4R)-3-fluorotetrahydro-2H-pyran-4-yl)amino)-8-((2,4,6-trichlorophenyl)amino)-9H-purin-9-yl)-1-methylcyclohexane-1-carboxamide and methods of their use” (Signal Pharmaceuticals, LLC, priority 2016, dated 2019).
Like-named read-outs stand apart in the source and are kept apart here.

Key:
Hep3B (HCC) cells = experiment: Long term colony assay, Hep3B; format: cell-based; settings: up to 8 weeks
Procedure: Compound 1 was assessed for its ability to inhibit the colony formation of cancer cells via a long-term colony forming assay. Cells and compounds were added to 96-well plates and were monitored for up to 8 weeks for the formation of colonies. Compound and media were replenished every 1 week throughout the course of the assay. Colony formation was detected via imaging at 4× on the IncuCyte ZOOM System. […] (FIGS. 210A-210D).

pRSK1 S380 in SW48 cells = experiment: pRSK1 S380 Mesoscale assay in SW48; format: cell-based; settings: Homo sapiens; SW48, 2 h treatment, n = 3
Procedure: (§1) Cancer cells were seeded at a density of 25,000 cells per well in 96-well tissue culture plates and incubated at 37° C. in a CO2 incubator overnight. After treatment with Compound 1 at 37° C. for 2 h, the cells were lysed with Mesoscale lysis buffer and pRSK S380 levels in each lysate were measured via Mesoscale ELISA technology.

[1] = test system: pRSK1 S380 in LOX-IMVI cells; experiment: pRSK1 S380 Mesoscale assay in LOX-IMVI; format: cell-based
Procedure: as §1

SW48 xenograft = experiment: β-catenin mutant SW48 colorectal xenograft model; format: in vivo, SCID mice
Source text: Female SCID mice were inoculated with 2×10^6 SW48 tumor cells into the right flank. Mice were randomized into treatment groups (n=10/group) at the time of treatment initiation. Test article treatment started on Day 10 when the tumors were approximately 110 and 105 mm^3. (FIGS. 202A-202B) Black dotted line is the tumor volume at the initiation of dosing. Graph on the left is a dose-response study. Graph on the right is a time to progression study where animals were maintained on drug during the course of the study. Dotted line is the tumor volume on Day 28 when the vehicle control group was terminated.

[2] = test system: DUSP4, DUSP6, cyclin D1, c-Myc, YAP in Colo 205 (BRAF V600E); experiment: Western blot of MAPK, Wnt and Hippo pathway markers in Colo 205; format: cell-based
Procedure: The ability of Compound 1 to inhibit MAPK signaling was assessed by determining the DUSP4 and DUSP6 protein expression. Colon cancer cell line Colo 205 (BRAF V600E) cultures were treated with DMSO or increasing concentrations of Compound 1 for 2, 8 or 24 h. Proteins were extracted from treated cells and analyzed by Western blot using antibodies against DUSP4, DUSP6, cyclin D1, c-Myc, YAP or β-actin. RNAs were extracted using Cell-To-CT kit and quantitative PCR was performed with probes specific for DUSP4, DUSP6, SPRY2, c-Myc and cyclin D1. Specific probes for β-actin were used for normalization.
Compound 1 modulation of MAPK, WNT/β-catenin, and Hippo/YAP pathway markers was evaluated by standard Western blotting. LOX-IMVI, SW48, and Colo-205 cells were plated in 6-well plates at a density of 250,000 cells per well and were allowed to attach overnight. Compound 1 was added to cells at concentrations of 0.03, 0.1, 0.3, 1, and 3 μM for durations of 2, 8, and 24 hours. […] The cell lysates were heated in sodium dodecyl sulfate (SDS)-sample buffer and 40 μg of cell lysate per condition were loaded onto gels and separated using SDS polyacrylamide gel electrophoresis (PAGE). Protein was transferred to nitrocellulose membrane, and immunoblotted with anti DUSP4, DUSP6, cMyc, Cyclin D1, YAP, AXIN2, HDAC5 (phospho S498), and β-actin antibodies. Membranes were scanned on the Licor Odyssey system.

[3] = test system: BRAF mutant and beta-catenin mutant or active cancer cell lines; experiment: Anti-proliferative and apoptotic activity in BRAF mutant and beta-catenin mutant or active cancer cell lines; format: cell-based; settings: for IC50: read-out: Proliferation IC50
Procedure: Anti-proliferative and apoptotic activity in BRAF mutant and beta-catenin mutant or active cancer cell lines. The mutation status of BRAF, CTNNB1, KRAS, and EGFR in five cell lines evaluated was based on public data (COSMIC and CCLE) and confirmed internally. β-catenin status was evaluated using TOP Flash reporter system by transient transfection. A cell line was defined as β-catenin active if a ratio of Top Flash reporter over Fop Flash reporter is greater than 2. N/A: Not available. Transfection efficiency in Colo 205 (BRAF V600E) was too low to access its β-catenin activity using this approach. Antiproliferative and apoptotic activity of Compound 1 in the five cell lines were measured as described above.

[4] = test system: cell lines having β-catenin mutations; experiment: Sensitivity of cell lines by mutation status (β-catenin, BRAF, RB, PI3K/PTEN); format: cell-based
Procedure: Evaluation of sensitivity in cell lines having beta-catenin mutations. The effect of Compound 1 on cell lines having β-catenin mutations was evaluated. (FIG. 205 and FIGS. 206A-206B).

[5] = Dynamic vapor sorption (hygroscopicity); format: physicochemical
Procedure: Dynamic vapor sorption (DVS) was measured using DVS advantage (Surface Measurement Systems Ltd). The samples were tested under isotherm (25° C.) at a targeted RH of 0 to 95% full cycle in step mode. For an isotherm test, the chamber temperature was maintained by a water bath at constant 25.0±1.0° C. The relative humidity in the sample chamber was generated by combining different flows of wet and dry nitrogen with variable flow rates. The analysis was performed in 10% RH increments. Sampling rate was 1 sec save data rate is 20 sec. The dm/dt (%) value was set at 0.001 with a dm/dt window of 5 min., a minimum stability duration time of 10 min, and a maximum stage time of 180 min. The sample's equilibrium weight corresponding to each RH was recorded. A sorption isotherm was obtained by plotting equilibrium moisture content versus RH.
Hygroscopicity was determined on a Surface Measurement Systems DVS. A sample size of 5-20 mg was loaded into the DVS instrument sample pan and the sample was analyzed on a DVS automated sorption analyzer at room temperature. The relative humidity was increased from 0% to 90% RH at 10% RH step, then decreased in a similar manner to accomplish a full adsorption/desorption cycle.

[6] = AGS, Gastric, CTNNB1 (G43E), KRAS (G12D), β-catenin active

For `C[C@]1(C(N)=O)CC[C@@H](n2c(Nc3c(Cl)cc(Cl)cc3Cl)nc3cnc(N[C@@H]4CCOC[C@H]4F)nc32)CC1` [Compound 1, cis-4-[2-{[(3S,4R)-3-fluorooxan-4-yl]amino}-8-(2,4,6-trichloroanilino)-9H-purin-9-yl]-1-methylcyclohexane-1-carboxamide], which “inhibition of colony formation vs trametinib and GDC0994” value (Hep3B (HCC) cells) is on record?
Its value is “greater levels of inhibition than seen with treatment with MEK inhibitors or ERK inhibitors”.

And the IC50 (pRSK1 S380 in SW48 cells)?
Its IC50 is 0.021 µM.

And the pRSK1 inhibition ([1]; 2 h)?
Its pRSK1 inhibition is “potently inhibited pRSK1”.

What about the IC50 ([1]; Homo sapiens, 2 h treatment, n = 3) of the same compound?
The IC50 was 0.038 µM.

And the antitumor activity (SW48 xenograft)?
The antitumor activity was “Significant antitumor activity”.

And the “cyclin D1 and c-Myc RNA and protein levels” value ([2]; Colo 205)?
The value was “significantly decreased”.

What about the YAP protein ([2]; Colo 205, 24 h) of the same compound?
The YAP protein was “decreased YAP protein”.

What about the “DUSP4 and DUSP6 protein” value ([2]; Colo 205, as early as 2 h, sustained through 24 h) of the same compound?
The value was “significantly reduced”.

What about the “proliferation and apoptosis in BRAF mutant and beta-catenin mutant or active cancer cell lines” value [3] of the same compound?
The value was “potently inhibits proliferation and induces apoptosis”.

And the “Apoptosis induction CalX2” value [3, 6]?
Its value is 0.004 ± 0.002 µM.

What about the IC50 [3, 6] of the same compound?
Its IC50 is 0.028 µM.

What about the IC50 ([3]; Homo sapiens, Colo 205, CRC, BRAF (V600E)) of the same compound?
Its IC50 is 0.036 µM.

And the IC50 ([3]; Homo sapiens, Hep3B, HCC, β-catenin active)?
Its IC50 is 0.014 µM.

What about the IC50 ([3]; Homo sapiens, LOX-IMVI, Melanoma, BRAF (V600E), β-catenin inactive) of the same compound?
Its IC50 is 0.025 µM.

And the IC50 ([3]; Homo sapiens, SW48, CRC, CTNNB1 (S33Y), EGFR (G179S), β-catenin active)?
Its IC50 is 0.009 µM.

What about the “efficacy against cell lines with mutated β-catenin” value [4] of the same compound?
Its value is “showed efficacy”.

What about the “hygroscopicity with respect to monohydrate” value ([5]; 0-95% RH) of the same compound?
The value was under 4.3%.

And the “hygroscopicity (in words)” value ([5]; DVS)?
Its value is “slightly hygroscopic”.

What about the remaining water released ([5]; from 5% RH to dry) of the same compound?
Its remaining water released is about 2.8 % wt.

And the additional moisture sorption ([5]; from 25 to 95% RH)?
Its additional moisture sorption is about 1.7%.

And the “loss of water content during desorption cycle” value ([5]; from 95 down to 5% RH)?
Its value is about 1.5%.
